Key:
[1] = in vivo test (not specified further)
[2] = target: T1, human neutrophil elastase (HNE) (Homo sapiens, UniProt P08246); test: Acute Hemorrhagic Assay: lung hemorrhage in hamsters after intratracheal HNE; type: in vivo, hamster; details: dose of 5 mg/kg by mouth, 30 min prior to administration of HNE; male Syrian hamsters
T1 construct: host or cells: exogenous human enzyme instilled into the trachea of male Syrian hamsters
T1 sequence (P08246 30-267): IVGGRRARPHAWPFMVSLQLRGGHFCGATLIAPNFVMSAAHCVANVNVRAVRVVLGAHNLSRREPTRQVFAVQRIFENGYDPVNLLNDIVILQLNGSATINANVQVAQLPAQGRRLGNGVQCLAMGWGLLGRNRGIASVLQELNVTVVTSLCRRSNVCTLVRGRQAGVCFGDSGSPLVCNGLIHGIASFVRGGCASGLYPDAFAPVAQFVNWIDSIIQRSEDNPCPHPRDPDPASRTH
From the text: This assay relies on monitoring only the amount of hemorrhage in the lung following intratracheal administration of human neutrophil elastase (HNE). Hemorrhage is quantified by disrupting erythrocytes recovered in lung lavage fluid and comparing that to dilutions of whole hamster blood. […] Four hours after enzyme administration, the animals are killed with an overdose of pentobarbital sodium, the thorax opened and the lungs and trachea removed. The excised lungs are lavaged with three changes of 2 mL normal saline via a tracheal cannula. The recovered lavages are pooled, the volumes (about 5 mL) are recorded and the lavages stored at 4 °C until assayed. For calculation of the amount of blood in each sample, the thawed lavages and a sample of whole hamster blood are sonicated to disrupt erythrocytes and appropriately diluted into individual wells of a 96-well microtiter plate. The optical densities (OD) of the disrupted lavages and blood samples are determined at 405 nm. The (µL blood equivalents) / (mL lavage) are determined by comparing the OD of the test samples with the OD of the standard curve prepared from whole hamster blood. The total µL equivalents of blood recovered is determined by multiplying recovered lavage volume by the (µL blood equivalents) / (mL lavage) for each sample.

For `CC(C)C(NC(=O)Cn1c(-c2ccccc2)ccc(N)c1=O)C(=O)C(F)(F)F` (stereo not drawn) [Example 49, 2-(3-Amino-2-oxo-6-phenyl-1,2-dihydro-1-pyridyl)-N-(3,3,3-trifluoro1-isopropyl-2-oxopropyl)acetamide], the “activity in an in vivo test” value [1] was “activity”.

In the case of `CC(C)C(NC(=O)Cn1c(-c2ccccc2)ccc(NC(=O)Cc2ccc(N)cc2)c1=O)C(=O)C(F)(F)F.Cl` (stereo not drawn) [Example 159, 2-[3-(4-Aminophenylacetylamino)-2-oxo-6-phenyl-1,2-dihydro-1-pyridyl]-N-(3,3,3-trifluoro-1-isopropyl-2-oxopropyl)acetamide hydrochloride], the “activity in an in vivo test” value [1] is reported as “activity”.

For `CC(C)C(NC(=O)Cn1c(-c2ccccc2)ccc(NC(=O)C(F)(F)F)c1=O)C(=O)C(F)(F)F` (stereo not drawn) [Example 167, 2-(3-trifluoroacetylamino-2-oxo-6-phenyl-1,2-dihydro-1-pyridyl)-N-(3,3,3-trifluoro-1-isopropyl-2-oxopropyl)acetamide], the inhibition of hemorrhage [2] was “statistically significant inhibition of hemorrhage”.
